In ChEMBL document CHEMBL3046589, “Synthesis and Fungicidal Activities of (-Methoxybenzyl) isoxazoles” (2000):

Legend:
Format in all cases: functional
[1] = test system: Myzus persicae; assay: Insecticidal activity against Myzus persicae (green peach aphid) nymphs fed with Chinese cabbage leaf assessed as mortality at 62.5 ppm applied through spraying measured after 48 hr
[2] = test system: Pseudoperonospora cubensis; assay: Curative fungicidal activity against Pseudoperonospora cubensis infected cucumber leaves at 31.3 ppm after by foliar application method
[3] = test system: Podosphaera fuliginea; assay: Preventive fungicidal activity against Podosphaera fuliginea infected cucumber leaves at 31.3 ppm after by foliar application method
[4] = test system: Podosphaera fuliginea; assay: Curative fungicidal activity against Podosphaera fuliginea infected cucumber leaves at 31.3 ppm after by foliar application method
[5] = test system: Myzus persicae; assay: Insecticidal activity against Myzus persicae (green peach aphid) nymphs fed with Chinese cabbage leaf assessed as mortality at 250 ppm applied through spraying measured after 48 hr
[6] = test system: Pseudoperonospora cubensis; assay: Preventive fungicidal activity against Pseudoperonospora cubensis infected cucumber leaves at 31.3 ppm after by foliar application method
[7] = test system: Podosphaera fuliginea; assay: Preventive fungicidal activity against Podosphaera fuliginea infected cucumber leaves at 7.8 ppm after by foliar application method
[8] = test system: Pseudoperonospora cubensis; assay: Preventive fungicidal activity against Pseudoperonospora cubensis infected cucumber leaves at 7.8 ppm after by foliar application method
[9] = test system: Myzus persicae; assay: Insecticidal activity against Myzus persicae (green peach aphid) nymphs fed with chinese cabbage leaf assessed as mortality at 15.6 ppm applied through spraying measured after 48 hr
[10] = test system: Podosphaera fuliginea; assay: Curative fungicidal activity against Podosphaera fuliginea infected cucumber leaves at 7.8 ppm after by foliar application method
[11] = test system: Pseudoperonospora cubensis; assay: Curative fungicidal activity against Pseudoperonospora cubensis infected cucumber leaves at 7.8 ppm after by foliar application method
[12] = test system: Pseudoperonospora cubensis; assay: Preventive fungicidal activity against Pseudoperonospora cubensis infected cucumber leaves at 500 ppm after by foliar application method
[13] = test system: Podosphaera fuliginea; assay: Preventive fungicidal activity against Podosphaera fuliginea infected cucumber leaves at 125 ppm after by foliar application method
[14] = test system: Podosphaera fuliginea; assay: Preventive fungicidal activity against Podosphaera fuliginea infected cucumber leaves at 500 ppm after by foliar application method
[15] = test system: Pseudoperonospora cubensis; assay: Preventive fungicidal activity against Pseudoperonospora cubensis infected cucumber leaves at 125 ppm after by foliar application method
[16] = test system: Botrytis cinerea; assay: Preventive fungicidal activity against Botryotinia fuckeliana infected cucumber leaves at 500 ppm after by foliar application method

Q: For `COC(c1cc(C)no1)c1ccccc1/C=N/N=C(\C)c1ccc(Cl)c(Cl)c1` (stereo not drawn), which mortality at 62.5 ppm [1] is on record?
A: Its mortality at 62.5 ppm is 3%.

Q: What about the Activity [2] of the same molecule?
A: The Activity was 100%.

Q: And the Activity [3]?
A: Its Activity is 100%.

Q: And the Activity [4]?
A: Its Activity is 70%.

Q: What about the mortality at 250 ppm [5] of the same molecule?
A: Its mortality at 250 ppm is 3%.

Q: What about the Activity [6] of the same molecule?
A: The Activity was 70%.

Q: What about the Activity [7] of the same molecule?
A: Its Activity is 100%.

Q: What about the Activity [8] of the same molecule?
A: Its Activity is 30%.

Q: What about the mortality at 15.6 ppm [9] of the same molecule?
A: Its mortality at 15.6 ppm is 0%.

Q: What about the Activity [10] of the same molecule?
A: The Activity was 30%.

Q: What about the Activity [11] of the same molecule?
A: The Activity was 100%.

Q: How did the Activity [2] turn out when `CO/N=C(\c1ccon1)c1ccccc1COc1cc(C)ccc1C` was run?
A: The Activity was 100%.

Q: And the Activity [3]?
A: Its Activity is 100%.

Q: And the Activity [4]?
A: The Activity was 0%.

Q: What about the Activity [6] of the same molecule?
A: Its Activity is 0%.

Q: What about the Activity [7] of the same molecule?
A: The Activity was 100%.

Q: What about the Activity [8] of the same molecule?
A: The Activity was 0%.

Q: What about the Activity [10] of the same molecule?
A: The Activity was 0%.

Q: What about the Activity [11] of the same molecule?
A: Its Activity is 100%.

Q: For `COC(c1cc(C)no1)c1ccccc1/C=N/N=C(\C)c1cccc(Cl)c1` (stereo not drawn), which Activity [12] is on record?
A: The Activity was 50%.

Q: With `COC(c1cc(C)no1)c1ccccc1/C=N/N=C(\C)c1ccc(F)cc1` (stereo not drawn) as the molecule, how does the Activity [12] read?
A: Its Activity is 50%.

Q: What about the Activity [13] of the same molecule?
A: The Activity was 90%.

Q: With `COC(c1cc(C)no1)c1ccccc1/C=N/N=C(\C)c1ccccc1Br` (stereo not drawn) as the molecule, how does the Activity [14] read?
A: The Activity was 90%.

Q: And the Activity [12]?
A: The Activity was 50%.

Q: For `COC(c1cc(C)no1)c1ccccc1/C=N/N=C(\C)c1ccc(Br)cc1` (stereo not drawn), which Activity [2] is on record?
A: Its Activity is 100%.

Q: What about the Activity [3] of the same molecule?
A: Its Activity is 100%.

Q: What about the Activity [4] of the same molecule?
A: The Activity was 70%.

Q: And the Activity [6]?
A: The Activity was 70%.

Q: And the Activity [7]?
A: The Activity was 100%.

Q: What about the Activity [8] of the same molecule?
A: The Activity was 50%.

Q: And the Activity [10]?
A: Its Activity is 50%.

Q: What about the Activity [11] of the same molecule?
A: The Activity was 100%.

Q: Which Activity [3] does the source give for `COC(c1cc(C)no1)c1ccccc1/C=N/N=C(\C)c1ccc(C)cc1` (stereo not drawn) here?
A: Its Activity is 90%.

Q: What about the Activity [12] of the same molecule?
A: Its Activity is 50%.

Q: `COc1ccc(/C(C)=N/N=C/c2ccccc2C(OC)c2cc(C)no2)cc1` (stereo not drawn) was tested. Which Activity [15] did it give?
A: The Activity was 50%.

Q: What about the Activity [13] of the same molecule?
A: Its Activity is 90%.

Q: Which mortality at 62.5 ppm [1] does the source give for `COC(c1cc(C)no1)c1ccccc1/C=N/N=C(\C)c1ccc(C(F)(F)F)cc1` (stereo not drawn) here?
A: The mortality at 62.5 ppm was 1%.

Q: And the mortality at 250 ppm [5]?
A: The mortality at 250 ppm was 2%.

Q: And the Activity [6]?
A: The Activity was 50%.

Q: What about the Activity [7] of the same molecule?
A: The Activity was 90%.

Q: What about the mortality at 15.6 ppm [9] of the same molecule?
A: Its mortality at 15.6 ppm is 0%.

Q: `COC(c1cc(C)no1)c1ccccc1/C=N/N=C(\C)c1ccc(OC(F)(F)F)cc1` (stereo not drawn) was tested. Which Activity [2] did it give?
A: The Activity was 100%.

Q: And the Activity [3]?
A: The Activity was 100%.

Q: And the Activity [4]?
A: The Activity was 45%.

Q: And the Activity [6]?
A: The Activity was 60%.

Q: What about the Activity [7] of the same molecule?
A: Its Activity is 100%.

Q: What about the Activity [8] of the same molecule?
A: The Activity was 50%.

Q: And the Activity [10]?
A: Its Activity is 0%.

Q: What about the Activity [11] of the same molecule?
A: The Activity was 100%.

Q: For `COC(c1cc(C)no1)c1ccccc1/C=N/N=C(\C)c1ccc(Cl)cc1Cl` (stereo not drawn), which Activity [3] is on record?
A: Its Activity is 90%.

Q: What about the Activity [12] of the same molecule?
A: The Activity was 50%.

Q: What does the source list for `COC(c1ccon1)c1ccccc1COc1cc(C)ccc1C` (stereo not drawn)?
A: Activity [3]: 90%; Activity [12]: 50%; Activity [16]: 50%

Q: Which Activity [3] does the source give for `COC(c1cc(C)on1)c1ccccc1COc1cc(C)ccc1C` (stereo not drawn) here?
A: Its Activity is 90%.

Q: And the Activity [12]?
A: The Activity was 50%.

Q: What about the Activity [16] of the same molecule?
A: The Activity was 50%.

Q: Which Activity [12] does the source give for `COC(c1cc(C)no1)c1ccccc1COc1cc(C)ccc1C` (stereo not drawn) here?
A: The Activity was 50%.

Q: What about the Activity [16] of the same molecule?
A: The Activity was 50%.

Q: What about the Activity [7] of the same molecule?
A: The Activity was 90%.

Q: For `COC(c1ccccc1COc1cc(C)ccc1C)c1c(C)noc1C` (stereo not drawn), which Activity [14] is on record?
A: The Activity was 90%.

Q: And the Activity [12]?
A: Its Activity is 50%.

Q: What about the Activity [16] of the same molecule?
A: Its Activity is 50%.

Q: For `COC(C1=NOCC1)c1ccccc1COc1cc(C)ccc1C` (stereo not drawn), which Activity [12] is on record?
A: Its Activity is 50%.

Q: And the Activity [16]?
A: The Activity was 50%.

Q: And the Activity [13]?
A: Its Activity is 90%.

Q: How did the Activity [14] turn out when `COC(c1ccccc1COc1cc(C)ccc1C)C1CC(C)=NO1` (stereo not drawn) was run?
A: The Activity was 90%.

Q: And the Activity [12]?
A: Its Activity is 50%.

Q: And the Activity [16]?
A: The Activity was 50%.

Q: Which Activity [12] does the source give for `COC(c1cc(C)no1)c1ccccc1Oc1ccccc1` (stereo not drawn) here?
A: The Activity was 50%.

Q: What about the Activity [16] of the same molecule?
A: Its Activity is 50%.

Q: Which results are given for `COC(c1cc(C)no1)c1ccccc1Oc1ncc(C(F)(F)F)cc1Cl` (stereo not drawn)?
A: Activity [12]: 50%; Activity [16]: 50%

Q: For `COC(c1cc(C)no1)c1ccccc1Oc1cc(Oc2ccccc2C#N)ncn1` (stereo not drawn), which Activity [14] is on record?
A: Its Activity is 90%.

Q: And the Activity [12]?
A: Its Activity is 50%.

Q: And the Activity [16]?
A: The Activity was 50%.

Q: Which results are given for `COC(c1cc(C)no1)c1ccccc1COc1ccccc1C` (stereo not drawn)?
A: Activity [3]: 90%; Activity [12]: 50%; Activity [16]: 50%

Q: Which Activity [14] does the source give for `COC(c1cc(C)no1)c1ccccc1/C=C/c1ccc(Cl)cc1` (stereo not drawn) here?
A: The Activity was 90%.

Q: And the Activity [12]?
A: Its Activity is 50%.

Q: What about the Activity [16] of the same molecule?
A: Its Activity is 50%.

Q: Which Activity [12] does the source give for `COC(c1cc(C)no1)c1ccccc1COc1ccc(C(F)(F)F)cn1` (stereo not drawn) here?
A: The Activity was 50%.

Q: What about the Activity [16] of the same molecule?
A: The Activity was 50%.

Q: What about the Activity [13] of the same molecule?
A: The Activity was 90%.

Q: Which results are given for `COC(c1cc(C)no1)c1ccccc1COc1ncc(C(F)(F)F)cc1Cl` (stereo not drawn)?
A: Activity [3]: 90%; Activity [12]: 50%; Activity [16]: 50%

Q: For `COC(c1cc(C)no1)c1ccccc1CO/N=C(\C)c1ccc(Cl)cc1` (stereo not drawn), which Activity [3] is on record?
A: Its Activity is 90%.

Q: And the Activity [12]?
A: The Activity was 50%.

Q: And the Activity [16]?
A: The Activity was 50%.

Q: How did the Activity [12] turn out when `COC(c1cc(C)no1)c1ccccc1CO/N=C(\SC)c1ccc(Cl)cc1` (stereo not drawn) was run?
A: Its Activity is 50%.

Q: And the Activity [16]?
A: The Activity was 50%.

Q: What about the Activity [13] of the same molecule?
A: Its Activity is 90%.

Q: `COC(c1cc(C)no1)c1ccccc1/C=N/OC(C)c1ccc(Cl)cc1` (stereo not drawn) was tested. Which Activity [12] did it give?
A: Its Activity is 50%.

Q: What about the Activity [16] of the same molecule?
A: The Activity was 50%.

Q: What about the Activity [7] of the same molecule?
A: The Activity was 90%.

Q: For `COC(c1cc(C)no1)c1ccccc1/C=N/N=C(\C)c1ccc(Cl)cc1` (stereo not drawn), which mortality at 62.5 ppm [1] is on record?
A: The mortality at 62.5 ppm was 1%.

Q: And the Activity [16]?
A: Its Activity is 50%.

Q: What about the mortality at 250 ppm [5] of the same molecule?
A: Its mortality at 250 ppm is 2%.

Q: What about the Activity [6] of the same molecule?
A: The Activity was 50%.

Q: What about the Activity [7] of the same molecule?
A: The Activity was 90%.

Q: What about the mortality at 15.6 ppm [9] of the same molecule?
A: Its mortality at 15.6 ppm is 0%.

Q: What does the source list for `COC(c1cc(C)no1)c1ccccc1/C=N/N=C(\C)c1ccccc1` (stereo not drawn)?
A: Activity [14]: 90%; Activity [12]: 50%

Q: Which results are given for `COC(c1cc(C)no1)c1ccccc1/C=N/N=C(\C)c1ccccc1Cl` (stereo not drawn)?
A: Activity [14]: 90%; Activity [12]: 50%

Q: Which results are given for `CC(C)C(C(=O)OC(C#N)c1cccc(Oc2ccccc2)c1)c1ccc(OC(F)F)cc1` (stereo not drawn) [FLUCYTHRINATE]?
A: mortality at 62.5 ppm [1]: 3%; mortality at 250 ppm [5]: 3%; mortality at 15.6 ppm [9]: 3%

Q: What does the source list for `CNC(=O)/C(=N/OC)c1ccccc1Oc1ccccc1` [METOMINOSTROBIN]?
A: Activity [2]: 97%; Activity [3]: 100%; Activity [4]: 40%; Activity [6]: 60%; Activity [7]: 70%; Activity [8]: 40%; Activity [10]: 0%; Activity [11]: 70%
